Laboratory results as given in patent publication US20250051338A1, “TYK2 DEGRADERS AND USES THEREOF” (Kymera Therapeutics, Inc., priority 2021, published 2025).

Tests used:
Format in all cases: cell-based
TYK2 [1] = target: T1, TYK2 (Homo sapiens, UniProt P29597); test: TYK2 degradation MSD assay in OCI-LY10 cells; parameters: endogenous in cells; host or cells: EBV-B cells; settings: 4 to 24 hours incubation, read-out: TYK2 MSD DC50 rating in OCI-LY10
Summary of the method: (§1)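 Cells (0.4 million per well) were treated with a 9-point, 1:3 compound series from a top concentration of 1 to 10 μM for 4 to 24 hours at 37° C, then lysed in RIPA with protease/phosphatase inhibitors. Remaining TYK2 was quantified by sandwich MSD immunoassay; DC50 came from four-parameter nonlinear fits.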

TYK2 [2] = target: T1, TYK2; test: TYK2 degradation MSD assay in EBV-B cells; parameters: endogenous in cells; host or cells: EBV-B cells; settings: 4 to 24 hours incubation, read-out: TYK2 MSD DC50 rating in EBV-B
Summary of the method: as §1

TYK2 [3] = target: T1, TYK2; test: TYK2 degradation MSD assay in human PBMC cells; parameters: endogenous in cells; host or cells: human PBMC; settings: 4 to 24 hours incubation, read-out: TYK2 MSD DC50 rating in human PBMC
Summary of the method: as §1

T1 sequence (P29597 whole entry): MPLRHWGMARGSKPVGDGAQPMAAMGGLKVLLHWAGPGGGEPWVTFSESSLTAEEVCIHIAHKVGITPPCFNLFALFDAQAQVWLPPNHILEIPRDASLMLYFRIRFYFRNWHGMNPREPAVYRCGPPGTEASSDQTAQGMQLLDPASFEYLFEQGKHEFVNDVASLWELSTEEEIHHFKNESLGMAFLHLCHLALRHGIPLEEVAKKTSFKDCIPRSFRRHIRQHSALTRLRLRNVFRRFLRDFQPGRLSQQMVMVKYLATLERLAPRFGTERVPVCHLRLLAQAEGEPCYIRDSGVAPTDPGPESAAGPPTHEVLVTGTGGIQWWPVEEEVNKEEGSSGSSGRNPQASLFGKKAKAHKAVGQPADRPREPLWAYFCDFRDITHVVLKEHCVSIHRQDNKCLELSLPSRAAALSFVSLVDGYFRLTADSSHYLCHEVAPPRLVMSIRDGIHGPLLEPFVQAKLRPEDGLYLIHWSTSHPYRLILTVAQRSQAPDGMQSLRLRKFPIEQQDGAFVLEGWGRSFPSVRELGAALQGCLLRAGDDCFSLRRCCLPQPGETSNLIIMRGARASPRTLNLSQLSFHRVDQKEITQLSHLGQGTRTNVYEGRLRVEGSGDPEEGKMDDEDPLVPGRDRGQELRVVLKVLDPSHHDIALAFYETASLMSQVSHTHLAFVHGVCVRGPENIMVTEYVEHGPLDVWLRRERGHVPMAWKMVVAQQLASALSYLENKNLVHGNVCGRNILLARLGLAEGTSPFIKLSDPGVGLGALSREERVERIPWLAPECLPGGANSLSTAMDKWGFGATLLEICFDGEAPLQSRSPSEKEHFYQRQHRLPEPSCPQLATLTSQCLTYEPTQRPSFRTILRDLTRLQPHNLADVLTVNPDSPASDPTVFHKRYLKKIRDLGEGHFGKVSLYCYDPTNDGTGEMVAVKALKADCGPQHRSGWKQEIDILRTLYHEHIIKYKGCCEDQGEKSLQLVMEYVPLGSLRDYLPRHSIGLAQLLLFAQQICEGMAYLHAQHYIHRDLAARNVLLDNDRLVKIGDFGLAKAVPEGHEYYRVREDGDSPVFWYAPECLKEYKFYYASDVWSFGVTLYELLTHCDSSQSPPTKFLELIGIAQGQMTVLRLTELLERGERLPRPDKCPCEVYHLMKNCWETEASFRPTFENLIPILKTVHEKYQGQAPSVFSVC

| Structure (SMILES) | DC50 (TYK2 [1]) [nM] | DC50 (TYK2 [2]) [nM] | DC50 (TYK2 [3]) [nM] |
| --- | --- | --- | --- |
| CNc1cc(Nc2cccc(CN3CC4(C3)CN(c3ccc(-c5ccc6c(c5)n(C)c(=O)n6C5CCC(=O)NC5=O)cc3)C4)c2OC)nn2c(C(=O)N[C@@H]3C[C@@H]3F)cnc12 (stereo partly drawn) [Example K610] | > 100 | > 100 | > 100 |
| CNc1cc(Nc2cccc(-c3ccc(CN4CCN(c5ccc(-c6ccc7c(c6)n(C)c(=O)n7C6CCC(=O)NC6=O)cc5)CC4)cn3)c2C(F)F)nn2c(C(=O)N[C@@H]3C[C@@H]3F)cnc12 (stereo partly drawn) [Example K611] | 1 to 10 | > 100 | > 100 |
| CNc1cc(Nc2cccc(CN3CCN(CCc4ccc5c(c4)n(C)c(=O)n5C4CCC(=O)NC4=O)CC3)c2)nn2c(C(=O)NC3CC3)cnc12 (stereo not drawn) [Example K612] | 10 to 100 | > 100 | > 100 |
| CNc1cc(Nc2cccc(CN3CCN(CCc4ccc5c(c4)n(C)c(=O)n5C4CCC(=O)NC4=O)CC3)c2)nn2c(C(=O)NC3CC3)cnc12 (stereo not drawn) [Example K613] | 1 to 10 | > 100 | > 100 |
| CNc1cc(Nc2cccc(CN3CC4(CCN(c5ccc6c(c5)n(C)c(=O)n6C5CCC(=O)NC5=O)CC4)C3)c2)nn2c(C(=O)NC3CC3)cnc12 (stereo not drawn) [Example K614] | > 100 | > 100 | > 100 |
| CNc1cc(Nc2cccc(-c3ccc(CN4CCN(c5ccc(-c6ccc7c(c6)n(C)c(=O)n7C6CCC(=O)NC6=O)cc5)CC4)cn3)c2OC)nn2ccnc12 (stereo not drawn) [Example K615] | > 100 | > 100 | > 100 |
| CNc1cc(N2CCc3c(-c4ccc(C(=O)N5CCN([C@H]6CC[C@H](c7ccc(-c8ccc9c(c8)n(C)c(=O)n9C8CCC(=O)NC8=O)cc7)CC6)CC5)cn4)cccc32)nn2c(C(=O)N[C@@H]3C[C@@H]3F)cnc12 (stereo partly drawn) [Example K616] | 1 to 10 | > 100 | > 100 |
| CNc1cc(Nc2cccc(-c3ccc(C(=O)N4CCN(C5CCC(c6ccc(-c7ccc8c(c7)n(C)c(=O)n8C7CCC(=O)NC7=O)cc6)CC5)CC4)cn3)c2OC)nn2c(C(=O)N[C@@H]3C[C@@H]3F)cnc12 (stereo partly drawn) [Example K617] | < 1 | > 100 | > 100 |
| CNc1cc(Nc2cccn(-c3ccc(C(=O)NCCOCCOCCOCCOCCNc4cncc(N5CCCC(C(=O)Nc6ccc(=O)n(CC(=O)OC)c6)C5)c4)cn3)c2=O)nn2c(C(=O)N[C@@H]3C[C@@H]3F)cnc12 (stereo partly drawn) [Example K618] | > 100 | > 100 | > 100 |
| CNc1cc(Nc2cccc(N3CCC(CN4CCN(c5ccc(-c6ccc7c(c6)n(C)c(=O)n7C6CCC(=O)NC6=O)cc5)CC4)CC3)c2OC)nn2c(C(=O)N[C@@H]3C[C@@H]3F)cnc12 (stereo partly drawn) [Example K619] | 1 to 10 | > 100 | > 100 |
| CNc1cc(N2CCN(c3ccc(CN4CCN(c5ccc(-c6ccc7c(c6)n(C)c(=O)n7C6CCC(=O)NC6=O)cc5)CC4)cc3)CC2)nn2c(C(=O)N[C@@H]3C[C@@H]3F)cnc12 (stereo partly drawn) [Example K620] | > 100 | > 100 | > 100 |
| CNc1cc(Nc2cccc(C3CCC(CN4CCN(c5ccc(-c6ccc7c(c6)n(C)c(=O)n7C6CCC(=O)NC6=O)cc5)CC4)CC3)c2OC)nn2c(C(=O)N[C@@H]3C[C@@H]3F)cnc12 (stereo partly drawn) [Example K621] | 1 to 10 | > 100 | > 100 |
| CNc1cc(Nc2cccc(N3CCC(CN4CCC(c5ccc(-c6ccc7c(c6)n(C)c(=O)n7C6CCC(=O)NC6=O)cc5)CC4)CC3)c2OC)nn2c(C(=O)N[C@@H]3C[C@@H]3F)cnc12 (stereo partly drawn) [Example K622] | < 1 | > 100 | > 100 |
| CNc1cc(Nc2cccc(N3CCC(CN4CC5(C4)CN(c4ccc(-c6ccc7c(c6)n(C)c(=O)n7C6CCC(=O)NC6=O)cc4)C5)CC3)c2OC)nn2c(C(=O)N[C@@H]3C[C@@H]3F)cnc12 (stereo partly drawn) [Example K623] | < 1 | > 100 | > 100 |
| CNc1cc(N2CCc3c(-c4ccc(CN5CCC6(CC5)CCN(C(=O)c5cccc(N7CCC(=O)NC7=O)c5)CC6)cn4)cccc32)nn2c(C(=O)N[C@@H]3C[C@@H]3F)cnc12 [Example K625] | < 1 | > 100 | > 100 |
| CNc1cc(N2CCc3c(-c4ccc(C(=O)N5CCC(CN6CCN(c7ccc(-c8ccc9c(c8)n(C)c(=O)n9C8CCC(=O)NC8=O)cc7)CC6)CC5)cn4)cccc32)nn2c(C(=O)N[C@@H]3C[C@@H]3F)cnc12 (stereo partly drawn) [Example K627] | < 1 | > 100 | > 100 |
| CNc1cc(Nc2cccc(-c3ccc(C(=O)N4CCN(CC5CCN(c6ccc(-c7ccc8c(c7)n(C)c(=O)n8C7CCC(=O)NC7=O)cc6)CC5)CC4)cn3)c2OC)nn2c(C(=O)N[C@@H]3C[C@@H]3F)cnc12 (stereo partly drawn) [Example K628] | 1 to 10 | > 100 | > 100 |

| Structure (SMILES) | DC50 (TYK2 [1]) [nM] | DC50 (TYK2 [2]) [nM] | DC50 (TYK2 [3]) [nM] |
| --- | --- | --- | --- |
| CNc1cc(Nc2cccc(-c3ccc(C(=O)N4CCC(CN5CCN(c6ccc(-c7ccc8c(c7)n(C)c(=O)n8C7CCC(=O)NC7=O)cc6)CC5)CC4)cn3)c2OC)nn2c(C(=O)N[C@@H]3C[C@@H]3F)cnc12 (stereo partly drawn) [Example K629] | < 1 | > 100 | > 100 |
| CNc1cc(Nc2cccc(-c3ccc(CN4CCN(c5ccc(-c6ccc7c(c6)n(C)c(=O)n7C6CCC(=O)NC6=O)cc5)CC4)cn3)c2OC)nn2c(-c3cn(C(C)C)nn3)cnc12 (stereo not drawn) [Example K630] | 1 to 10 | > 100 | > 100 |
| CNc1cc(N2CCc3c(-c4ccc(CN5CCN(c6ccc(-c7ccc8c(c7)n(C)c(=O)n8C7CCC(=O)NC7=O)cc6)CC5)cn4)cccc32)nn2c(-c3cn(C(C)C)nn3)cnc12 (stereo not drawn) [Example K631] | 1 to 10 | > 100 | > 100 |
| CNc1cc(Nc2cccc(-c3ccc(C(=O)N4CCN([C@H]5CC[C@H](c6ccc(-c7ccc8c(c7)n(C)c(=O)n8C7CCC(=O)NC7=O)cc6)CC5)CC4)cn3)c2)nn2c(C(=O)N[C@@H]3C[C@@H]3F)cnc12 (stereo partly drawn) [Example K632] | < 1 | > 100 | > 100 |
| CNc1cc(Nc2cccc(-c3ccc(C(=O)N4CCN(c5ccc(-c6ccc7c(c6)n(C)c(=O)n7C6CCC(=O)NC6=O)cc5)CC4)cn3)c2)nn2c(C(=O)N[C@@H]3C[C@@H]3F)cnc12 (stereo partly drawn) [Example K633] | < 1 | > 100 | > 100 |
| CNc1cc(N2CCc3c(CN4CCC(CN5CCN(c6ccc7c(c6)n(C)c(=O)n7C6CCC(=O)NC6=O)CC5)CC4)cccc32)nn2c(C(=O)N[C@@H]3C[C@@H]3F)cnc12 (stereo partly drawn) [Example K634] | < 1 | > 100 | > 100 |
| CNc1cc(N2CCc3c(N4CCC(CN5CCC(C#Cc6cccc7c6n(C)c(=O)n7C6CCC(=O)NC6=O)CC5)CC4)cccc32)nn2c(C(=O)N[C@@H]3C[C@@H]3F)cnc12 (stereo partly drawn) [Example K635] | 1 to 10 | > 100 | > 100 |
| CNc1cc(N2CCc3c(-c4ccc(CN5CCN(c6cccc7c6n(C)c(=O)n7C6CCC(=O)NC6=O)CC5)cn4)cccc32)nn2c(C(=O)N[C@@H]3C[C@@H]3F)cnc12 (stereo partly drawn) [Example K637] | 1 to 10 | > 100 | > 100 |
| CNc1cc(N2CCc3c(N4CCC(CN5CCN(c6ccc7c(c6)n(C)c(=O)n7C6CCC(=O)NC6=O)CC5)CC4)cccc32)nn2c(C(=O)N[C@@H]3C[C@@H]3F)cnc12 (stereo partly drawn) [Example K638] | < 1 | > 100 | > 100 |
| CNc1cc(Nc2cccc(C3CCN(CCc4cccc5c4n(C)c(=O)n5C4CCC(=O)NC4=O)CC3)c2)nn2c(C(=O)N[C@@H]3C[C@@H]3F)cnc12 (stereo partly drawn) [Example K641] | > 100 | > 100 | > 100 |
| Cn1c(=O)n(C2CCC(=O)NC2=O)c2ccc(-c3ccc(N4CCN(Cc5ccc(-c6cccc(Nc7nn8c(C(=O)N[C@@H]9C[C@@H]9F)cnc8c8c7OCCN8)c6Cl)nc5)CC4)cc3)cc21 (stereo partly drawn) [Example K642] | 1 to 10 | > 100 | > 100 |
| CNc1cc(N2CCc3c(N4CCN(C5CCN(c6ccc7c(c6)n(C)c(=O)n7C6CCC(=O)NC6=O)CC5)CC4)cccc32)nn2c(C(=O)N[C@@H]3C[C@@H]3F)cnc12 (stereo partly drawn) [Example K645] | < 1 | > 100 | > 100 |
| CNc1cc(N2CCc3c(N4CCN(C5CC6(CCN(c7ccc8c(c7)n(C)c(=O)n8C7CCC(=O)NC7=O)CC6)C5)CC4)cccc32)nn2c(C(=O)N[C@@H]3C[C@@H]3F)cnc12 (stereo partly drawn) [Example K646] | < 1 | > 100 | > 100 |
| CNc1cc(Nc2cccc(C3CCN(C(=O)Cc4cccc5c4n(C)c(=O)n5C4CCC(=O)NC4=O)CC3)c2)nn2c(C(=O)N[C@@H]3C[C@@H]3F)cnc12 (stereo partly drawn) [Example K647] | > 100 | > 100 | > 100 |
| CNc1cc(Nc2ccc(F)c(-c3ccc(Cc4ccc(-c5ccc6c(c5)n(C)c(=O)n6C5CCC(=O)NC5=O)cc4)cn3)c2OC)nn2c(C(=O)N[C@@H]3C[C@@H]3F)cnc12 (stereo partly drawn) [Example K648] | 1 to 10 | > 100 | > 100 |
| CNc1cc(N2CCc3c(-c4cc(N5CCN([C@H]6CC[C@H](c7ccc8c(c7)n(C)c(=O)n8C7CCC(=O)NC7=O)CC6)CC5)ccn4)cccc32)nn2c(C(=O)NC3CC3F)cnc12 (stereo partly drawn) [Example K650, N-[(1R,2S)-2-fluorocyclopropyl]-8-(methylamino)-6-[4-(4-{4-[(1r,4r)-4-[1-(2,6-dioxopiperidin-3-yl)-3-methyl-2-oxo-1,3-benzodiazol-5-yl]cyclohexyl]piperazin-1-yl}pyridin-2-yl)-2,3-dihydroindol-1-yl]imidazo[1,2-b]pyridazine-3-carboxamide] | < 1 | > 100 | > 100 |
